In PubChem BioAssay (NCI) one finds TGI data, which are given here for 29 compounds.

Molecules are shown by their SMILES.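 In this assay, cells in 96-well plates receive the compound at five concentrations for 48 hours. Endpoints are linearly interpolated between the surrounding concentrations. TGI: total growth inhibition.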

The subject of one experiment is HOP-18 NSCLC. Nature of the experiment: growth of human tumour cells (NCI), 48 h.
On to `C/C(=N\NS(=O)(=O)c1ccccc1)c1ccc(Cl)c(Cl)c1`, for which the TGI is over 100 µM. With `COC(=O)C(=O)C1(CCC(C)=O)c2ccccc2-c2c(C)ccc(C)c21` (stereo unspecified), the TGI was over 100 µM. In turn, `CC1(C)C(=NNC(=O)C[N+](C)(C)C)C(C)(C)C1=NNC(=O)C[N+](C)(C)C` came in with a TGI of over 100 µM. The same measure, in the same setting: for `COc1ccc2nc(-c3cccs3)cc(C(O)CN3CCSCC3)c2c1` (stereo unspecified) the value was 54.7 µM; for `N#C/C(=C\c1ccc(O)c(O)c1)C(N)=S`, over 100 µM; for `O=C(CN1CCOCC1)Nc1nc(-c2ccc(Cl)cc2)cs1`, over 100 µM. `COc1cc(C(=O)C/C(CCCC(=O)Nc2ccccc2[N+](=O)[O-])=N/NC(=O)c2cc3ccccc3cc2O)ccc1O`: the TGI is over 100 µM.

In turn, `CC(C)[C@H]1CO[C@]2(C)[C@@H]3CN(Cc4ccccc4)C[C@@H]3C(=O)N12` gave a TGI of over 100 µM. On the same count and under the same terms, for `CN(C)C(=O)OC(Cn1cncn1)c1ccc(Cl)cc1Cl` (stereo unspecified) the value was over 100 µM. The compound `CCOC(=O)COc1ccccc1/C=C1\CCC(CN(C)C)C1=O` (stereo unspecified) displayed a TGI of 37.9 µM.

Take `Cc1c(C(=O)C/C(=N\O)C(=O)Nc2cc(Cl)c(Cl)cc2Cl)[n+](=O)c2ccccc2n1[O-]`: the TGI amounted to 82.4 µM. On the same count and under the same terms, next, `CC1=Nc2ccccc2S/C1=C(/C)NNC(=O)C(N)=O`: over 100 µM. Same read-out and setting: next, `Nn1c(NNC(=O)C(=O)Nc2cc(Cl)c(Cl)cc2Cl)n[nH]c1=S`: over 100 µM; `O=C(N/C(=C\c1ccc2c(c1)OCO2)c1nc2ccccc2[nH]1)c1ccccc1`: over 100 µM; `CSc1ccc(C2OC(=O)c3ccccc32)c2ccccc12` (stereo unspecified): over 100 µM. `Cc1[nH]ccc2c1[nH]c1cc(=O)ccc12` came in with a TGI of over 100 µM. `C#CCOCn1cnc2c(Cl)ncnc21` had a TGI of over 100 µM. Compound `NC1C[C@H](n2cc(/C=C/Br)c(=O)[nH]c2=O)C[C@@H]1CO` (stereo partly specified) came in with a TGI of over 100 µM.

Compound `CC1=C(C)C(=O)c2c(cc3ccccn23)C1=O` displayed a TGI of 68.2 µM.

For the compound `O=C(NCCCCCCNC(=O)n1cc(F)c(=O)[nH]c1=O)NCCCOCCOCCOCCOCCOCCOCCOCCOCCOCCOCCOCCOCCOCCOCCOCCOCCOCCOCCOCCOCCOCCCNC(=O)C(O)C(O)C(O)C(O)CO` (stereo unspecified), the TGI was over 100 µM. Still for that read-out and setting: next, `CCCC(=O)OC1C(C(O)CO)OC2OC(C)(C)OC21` (stereo unspecified): over 100 µM. Same read-out and setting: for `Cc1ccc(N=Cc2ccc3c(c2)OCO3)cc1C` the value was over 100 µM. Still for that read-out and setting: next, `NNC(=O)/C(=C/c1ccc(Cl)cc1Cl)NC(=O)c1ccccc1`: over 100 µM.

On to `CC1C=C(OC(=O)c2ccccc2)C(=O)C(n2cc(F)c(=O)[nH]c2=O)O1` (stereo unspecified), for which the TGI was over 100 µM. For `CCc1ccccc1NC(=O)C(=O)CC(=O)c1sc(Nc2ccccc2)nc1C`, the TGI was over 100 µM. `COc1ccc(OC)c(NC(=O)C2=C(C)NC(C)=C(C(=O)Nc3cc(OC)ccc3OC)C2c2ccccc2)c1` showed a TGI of over 100 µM. Same read-out and setting: next, `Cc1ccc(NC(=O)C(=O)C(C#N)c2ccccc2C)cc1C` (stereo unspecified): over 100 µM; `Nc1ccn(CCNCCn2cnc3nc(N)[nH]c(=O)c32)c(=O)n1`: over 100 µM.

The subject of another experiment is MCF7 breast. Nature of the experiment: growth of human tumour cells (NCI), 48 h.
The compound `CCOC(=O)COc1ccccc1/C=C1\CCC(CN(C)C)C1=O` (stereo unspecified) gave a TGI of 19.8 µM. Same read-out and setting: for `O=C(NCCCCCCNC(=O)n1cc(F)c(=O)[nH]c1=O)NCCCOCCOCCOCCOCCOCCOCCOCCOCCOCCOCCOCCOCCOCCOCCOCCOCCOCCOCCOCCOCCOCCCNC(=O)C(O)C(O)C(O)C(O)CO` (stereo unspecified) the value was over 62 µM. Same read-out and setting: next, `CCCC(=O)OC1C(C(O)CO)OC2OC(C)(C)OC21` (stereo unspecified): over 100 µM.

The next experiment deals with M19-MEL melanoma. The experiment can be described thus: growth of human tumour cells (NCI), 48 h.
Take `C/C(=N\NS(=O)(=O)c1ccccc1)c1ccc(Cl)c(Cl)c1`: the TGI was over 100 µM. Still for that read-out and setting: for `COC(=O)C(=O)C1(CCC(C)=O)c2ccccc2-c2c(C)ccc(C)c21` (stereo unspecified) the value was over 100 µM; for `CC1(C)C(=NNC(=O)C[N+](C)(C)C)C(C)(C)C1=NNC(=O)C[N+](C)(C)C`, over 100 µM; for `COc1ccc2nc(-c3cccs3)cc(C(O)CN3CCSCC3)c2c1` (stereo unspecified), 58.6 µM.

In turn, `N#C/C(=C\c1ccc(O)c(O)c1)C(N)=S` gave a TGI of over 100 µM. As for `O=C(CN1CCOCC1)Nc1nc(-c2ccc(Cl)cc2)cs1`, the TGI is over 100 µM. The same measure, in the same setting: for `CC(C)[C@H]1CO[C@]2(C)[C@@H]3CN(Cc4ccccc4)C[C@@H]3C(=O)N12` the value was over 100 µM; for `CN(C)C(=O)OC(Cn1cncn1)c1ccc(Cl)cc1Cl` (stereo unspecified), over 100 µM. Regarding `CCOC(=O)COc1ccccc1/C=C1\CCC(CN(C)C)C1=O` (stereo unspecified), the TGI came to 8.98 µM. `Cc1c(C(=O)C/C(=N\O)C(=O)Nc2cc(Cl)c(Cl)cc2Cl)[n+](=O)c2ccccc2n1[O-]` gave a TGI of 5.1 µM. The same measure, in the same setting: for `CC1=Nc2ccccc2S/C1=C(/C)NNC(=O)C(N)=O` the value was over 100 µM; for `Nn1c(NNC(=O)C(=O)Nc2cc(Cl)c(Cl)cc2Cl)n[nH]c1=S`, over 100 µM; for `O=C(N/C(=C\c1ccc2c(c1)OCO2)c1nc2ccccc2[nH]1)c1ccccc1`, 19.8 µM.

`CSc1ccc(C2OC(=O)c3ccccc32)c2ccccc12` (stereo unspecified) displayed a TGI of over 100 µM.

On to `Cc1[nH]ccc2c1[nH]c1cc(=O)ccc12`, for which the TGI is over 100 µM.

For `C#CCOCn1cnc2c(Cl)ncnc21`, the TGI was over 100 µM.

The compound `NC1C[C@H](n2cc(/C=C/Br)c(=O)[nH]c2=O)C[C@@H]1CO` (stereo partly specified) showed a TGI of over 100 µM.

The compound `O=c1/c(=C/c2ccccc2F)sc2nc3ccccc3n12` gave a TGI of over 100 µM. Still for that read-out and setting: for `CC1=C(C)C(=O)c2c(cc3ccccn23)C1=O` the value was 4.42 µM; for `O=C(NCCCCCCNC(=O)n1cc(F)c(=O)[nH]c1=O)NCCCOCCOCCOCCOCCOCCOCCOCCOCCOCCOCCOCCOCCOCCOCCOCCOCCOCCOCCOCCOCCOCCCNC(=O)C(O)C(O)C(O)C(O)CO` (stereo unspecified), over 100 µM.
